# In US4748161A, “Triterpenyl esters of organic acids and hypolipidemic agents composed of them” (Amano Pharmaceutical Co., Ltd., priority 1984, dated 1988):
# Like-named read-outs stand apart in the source and are kept apart here.
# Legend:
# [1] = tested on: serum lipids and serum lipid hydroperoxide; experiment: Pharmacological test method B for anti-hyperlipidemic activity (serum lipids, 4 weeks feeding); type: in vivo, male Wistar strain rats; design: AI Diff.: unit not given here; details: for AI [(TC - HDL-C)/(HDL-C)] / HDL-C in serum / LPO in serum / PL in serum / TC in serum / TG in serum: 1% in hyperlipidemic diet, 4 weeks; for change in vivo at 1 % in diet: Rattus norvegicus, po, 672 h
# Description: Pharmacological test method B for anti-hyperlipidemic acitivity (the term "method B" was used in the present specification)
# (§1) Male Wistar strain rats (100±1 g, each 8 rats were formed into a group except that the control group fed with a hyperlipidemic diet was formed of 16 rats) were used as test animals. A powdery diet (CE-2, supplied by Clea Japan, Inc.) was used as ordinary diet. The hyperlipidemic diet was prepared by fortifying the ordinary diet with cholesterol (1%) and cholic acid (0.5%). Each test compound (1%) for administration was admixed with the hyperlipidemic diet. Each two rats were kept in a cage and given the prescribed diet and water ad libitum. Thus the rats were fed for 4 weeks at a constant temperature of 23±1° C. and a constant R.H. of 55±5%. Finally, the rats were fasted from food except water for 16 hours (from 4 p.m. of the 28th test day to 8 a.m. of the 29th test day), and under anesthesia with pentbarbital sodium (tradename: Nembutal), blood was taken from each rat through the descending abdominal arota. Then, TC, HDL-C, TG, PL, and LPO in the serum were measured in the following manner.
# A TC kit-K (supplied by Nippon Shoji Kaisha, Ltd.) was used. The principle of this determination is as follows: The ester of cholesterol in the serum is hydrolyzed with cholesterol-ester hydrolase into free cholesterol and fatty acids. All the free cholesterol is oxidized with cholesterol oxydase to form Δ^4 -cholestenone and hydrogen peroxide. Phenol and 4-aminoantipyrin are oxidatively condensed together by the formed hydrogen peroxide and peroxydase. The produced red quinone coloring matter is measured by colorimetry for absorbance at 500 nm using a spectrophotometer, thereby determining the TC:
# The color-developing liquid (3.0 ml) is well mixed with the sample serum (0.02 ml). The mixture once heated at 37° C. for 15 minutes, is measured for absorbance at 500 nm with a spectrophotometer. The found absorbance is denoted by EA. On the other hand, the color-developing liquid (3.0 ml) is well mixed with the standard solution. The mixture is treated and measured for absorbance at 500 nm in the same manner as the above. This found absorbance is denoted by ES. Both EA and ES are determined with reference to the value of the blank test conducted using the color-developing liquid (3.0 ml) alone. [formula]
# An HDL-C kit-N (supplied by Nippon Shoji Kaisha, Ltd.) was used. […] (VLDL) and lo density lipoprotein (LDL) in the serum is precipitated by the action of heparin. The precipitate is separated by centrifugation. High density lipoprotein (HDL) is dissolved in the separated supernatant. Esters of cholesterol in this fraction is hydrolyzed with cholesterol-ester hydrolase into free cholesterol and fatty acids. All the free cholesterol is oxidized with cholesterol oxydase to form Δ^4 -cholestenone and hydrogen peroxide. Phenol and 4-aminoantipyrine are oxidatively condensed together by the formed hydrogen peroxide and peroxydase. The produced red quinone coloring matter is measured by colorimetry for absorbance at 500 nm using a spectrophotometer, thereby determining the HDL-C.
# A PL kit-K (supplied by Nippon Shoji Kaisha, Ltd.) was used for the determination. Lecithin, sphingomyelin, and lysolecithin are decomposed by phospholipase D into choline and phosphatidic acid, N-acylsphingosyl phosphate, or lysophosphatidic acid, respectively. The resulting choline is quantitatively decomposed by choline oxydase into hydrogen peroxide and betaine. With this hydrogen peroxide, and aid of peroxydase, phenol and 4-aminoantipyrin are condensed into red quinone pigment, then the absorbance at 500 nm of which is measured with a spectrophotometer, thereby determining the PL. […]
# [2] = Body weight of rats in method B; design: species or system male Wistar strain rats; details: rat, in vivo
# Description: as §1
Compound,AI [(TC - HDL-C)/(HDL-C)] [1],HDL-C in serum [1] [mg/dL],LPO in serum [1] [nmol/mL],PL in serum [1] [mg/dL],TC in serum [1] [mg/dL],TG in serum [1] [mg/dL],"Body weight during feed period, 1st day [2] [g]","Body weight during feed period, 8th day [2] [g]","Body weight during feed period, 15th day [2] [g]","Body weight during feed period, 22nd day [2] [g]","Body weight during feed period, 28th day [2] [g]","Body weight just before blood sampling, 29th day [2] [g]",also measured
"COc1cc(C=C(C)C(=O)OC2CCC34CC35CCC3(C)C(C(C)CCC=C(C)C)CCC3(C)C5CCC4C2(C)C)ccc1N (stereo not drawn) [Example 189, Cycloartenyl ester of 4-amino-3-methoxy-α-methylcinnamic acid]",4.071,35.4,2.05,115.0,179.5,58.4,104 ± 3.8,142 ± 8.1,188 ± 12.6,239 ± 20.6,268 ± 22.7,256 ± 20.2,–
"COc1cc(C=CC(=O)OC2CCC34CC35CCC3(C)C(C(C)CCC=C(C)C)CCC3(C)C5CCC4C2(C)C)ccc1N (stereo not drawn) [Example 177, Cycloartenyl ester of 4-amino-3-methoxycinnamic acid]",6.554,32.5,2.29,125.8,245.5,63.1,104 ± 3.9,142 ± 9.6,187 ± 12.8,238 ± 21.2,267 ± 25.2,256 ± 27.1,–
"CCCOc1cc(C=C(C)C(=O)OC2CCC34CC35CCC3(C)C(C(C)CCC=C(C)C)CCC3(C)C5CCC4C2(C)C)ccc1O (stereo not drawn) [Example 146, cycloartenyl ester of 4-hydroxy-3-propoxy-α-methylcinnamic acid]",7.479,23.4,2.02,97.6,198.4,51.4,106 ± 5.9,149 ± 11.0,193 ± 17.5,243 ± 15.8,271 ± 20.2,258 ± 19.1,"change in vivo at 1 % in diet ([1]; versus control group, read-out: AI % of diff.): -65.6%; change in vivo at 1 % in diet ([1]; versus control group, read-out: HDL-C % of diff.): 73.3%; change in vivo at 1 % in diet ([1]; versus control group, read-out: LPO % of diff.): -28.4%; change in vivo at 1 % in diet ([1]; versus control group, read-out: PL % of diff.): -30.3%; change in vivo at 1 % in diet ([1]; versus control group, read-out: TG % of diff.): -9%; AI Diff. ([1]; versus control group): -14.28; HDL-C Diff. ([1]; versus control group): +9.9 mg/dl; LPO Diff. ([1]; versus control group): -0.80 nmol/mL; PL Diff. ([1]; versus control group): -42.5 mg/dL; TC % of diff. ([1]; versus control group): -38.1%; TC Diff. ([1]; versus control group): -108.9 mg/dL; TG Diff. ([1]; versus control group): -5.1 mg/dL"
